Consider three molecules from patent US20240124460A1, “METHODS AND COMPOSITIONS FOR TARGETED PROTEIN DEGRADATION” (Ranok Therapeutics (Hangzhou) Co. Ltd., priority 2020, published 2024).

For experiment [1], the target named is T1, HSP90α protein (Homo sapiens, UniProt P07900).
T1 construct: purchased BPS Bioscience #50298
Briefly: HSP90α-binding FP (BODIPY) assay. The settings on record: FP competition with BODIPY-labeled RNK04010. Put shortly:
(§1)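 Fluorescence polarization measured competition with N-terminal human HSP90α, using either FITC-geldanamycin or BODIPY-labelled triazolone RNK04010 as tracer (5 nM final each). Compounds were tested in 2.5-fold dilutions from 20 μM to 5.2 nM, with incubation at 25 °C for 120 min (FITC) or 300 min (BODIPY).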

In another experiment the test system is ERBB2. Kind of experiment: ERBB2 (HER2) flow cytometry protein degradation assay in BT-474 cells. Type of experiment: cell-based, human. The note with it: DC50, BT-474 cells, 24 hr. Summed up: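 BT-474 cells trypsinised after compound treatment and stained with PE-conjugated anti-ERBB2 antibody, 30 min at 25° C in the dark, then fixed in 1% paraformaldehyde for flow cytometry. % inhibition = 100−(D−B)/(S−B)*100, using treated, untreated-stained and unstained cell fluorescence.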

In experiment [2] the test system is A549 human lung carcinoma. Kind of experiment: A549 CCK-8 proliferation assay. The class given is cell-based. The note with it: A549 cells, 72 hr. The method, then: (§2) The following cancer cell lines were employed: A549 human lung carcinoma (ATCC, #CCL-185); BT-474 human breast carcinoma (ATCC, #HTB-20); MDA-MB-231 human breast adenocarcinoma (ATCC, #CRM−HTB-26); MDA-MB-468 human breast adenocarcinoma (ATCC, #HTB-132); MV-4-11 human acute myeloid leukemia (ATCC, #CRL-9591); and U-87 MG human glioblastoma (ATCC, #HTB-14). Cell lines were cultured essentially according to ATCC recommendations.
(§3) 3-fold serial dilutions of each test compound were prepared ranging from 20 μM to 1.02 nM.
(§4) % Inhibition=100−(D−B)/(S−B)*100%. • S: Absorbance of cells treated with DMSO • D: Absorbance of compound-treated cells • B: Absorbance of medium with DMSO without cells
A general note: Tetrazolium assays rely on reduction of a dye to a coloured formazan, in cell work by metabolically active cells.

The subject of experiment [3] is MDA-MB-231 human breast adenocarcinoma. Kind of experiment: MDA-MB-231 CCK-8 proliferation assay. The class given is cell-based. The settings on record: MDA-MB-231 cells, 72 hr. The method, then:
as §2, §3, §4

Experiment [4] relates to MDA-MB-468 human breast adenocarcinoma. Briefly: MDA-MB-468 CCK-8 proliferation assay. Type of experiment: cell-based. The settings on record: MDA-MB-468 cells, 72 hr. The method, then:
as §2, §3, §4

The subject of experiment [5] is MV-4-11 human acute myeloid leukemia. Briefly: MV-4-11 CCK-8 proliferation assay. The class given is cell-based. The note with it: Homo sapiens, MV4-11; MV-4-11 cells, 72 hr. Summed up: (§5)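 Cells grown per ATCC recommendations were treated with 3-fold serial compound dilutions from 20 μM to 1.02 nM. CCK-8 absorbance was converted to % inhibition against DMSO-treated cells, with cell-free medium containing DMSO as the blank.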

For experiment [6], the system named is U-87 MG human glioblastoma. Briefly: U87 MG CCK-8 proliferation assay. The class given is cell-based. The note with it: Homo sapiens, U-87 MG, 72 h, U-87 MG cells, read-out: U87MG CCK-8. Summed up:
as §5

In experiment [7] the target is T2, MAPK7 (Homo sapiens, UniProt Q13164). Briefly: MAPK7 kinase assay (ADP-Glo). Type of experiment: biochemical. More on the design: purchased Carna Biosciences #04-146. The note with it: ATP 340 μM. Summed up: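 Recombinant human MAPK7 (20 nM) with 0.1 mg/ml myelin basic protein and 340 μM ATP; compounds in 3-fold dilutions from 50 μM to 2.54 nM. ADP formation read by ADP-Glo luminescence, scaled between 0.5% DMSO and 10 μM XMD17-109 controls.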
In general terms: ADP-Glo turns the ADP formed in a reaction into a luminescent signal.

For experiment [8], the target named is T1, HSP90α protein. Kind of experiment: HSP90α-binding FP (FITC) assay. The settings on record: FP competition with FITC-geldanamycin. Summed up: as §1
For experiment [9], the target named is T2, MAPK7. Kind of experiment: MAPK7 Western blot protein degradation assay in U-87 MG cells. Further details: U-87 MG human glioblastoma cells, which express MAPK7; endogenous in cells; host or cells: U-87 MG. The note with it: 48 hr. The class given is cell-based. Summed up:
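U-87 MG glioblastoma cells treated with compounds at various concentrations for 48 h at 37 °C. MAPK7 (ERK5) levels in protein-normalized lysates measured by Western blot with β-actin as loading reference, quantified by fluorescence imaging.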
(In western blotting, separated proteins are transferred to a membrane and probed.)

T2 sequence (Q13164 whole entry): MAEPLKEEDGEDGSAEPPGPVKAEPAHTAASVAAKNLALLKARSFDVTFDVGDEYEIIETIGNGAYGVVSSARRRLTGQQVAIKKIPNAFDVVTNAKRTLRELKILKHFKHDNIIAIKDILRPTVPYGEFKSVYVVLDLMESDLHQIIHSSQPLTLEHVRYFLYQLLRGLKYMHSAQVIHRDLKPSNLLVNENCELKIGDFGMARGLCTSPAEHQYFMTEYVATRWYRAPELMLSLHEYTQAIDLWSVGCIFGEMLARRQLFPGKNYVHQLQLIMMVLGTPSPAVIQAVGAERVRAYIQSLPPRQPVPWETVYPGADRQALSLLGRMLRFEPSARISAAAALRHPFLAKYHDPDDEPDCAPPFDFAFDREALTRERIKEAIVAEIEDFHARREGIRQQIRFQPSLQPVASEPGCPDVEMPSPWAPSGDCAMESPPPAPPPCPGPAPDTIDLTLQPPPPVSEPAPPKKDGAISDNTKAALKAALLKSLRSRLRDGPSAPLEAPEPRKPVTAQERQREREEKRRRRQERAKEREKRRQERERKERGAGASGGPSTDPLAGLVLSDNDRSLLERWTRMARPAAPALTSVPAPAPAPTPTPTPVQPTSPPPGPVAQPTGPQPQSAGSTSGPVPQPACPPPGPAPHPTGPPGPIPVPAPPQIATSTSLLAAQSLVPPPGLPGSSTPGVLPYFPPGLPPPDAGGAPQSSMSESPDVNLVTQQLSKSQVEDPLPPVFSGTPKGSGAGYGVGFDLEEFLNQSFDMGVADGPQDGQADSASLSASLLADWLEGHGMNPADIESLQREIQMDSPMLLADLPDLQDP

For orientation: IC50 means the concentration at which inhibition is half-maximal. High values mean a need for much substance, low ones inhibition by little substance. On to `CCOc1cc(N2CCC(C(=O)N3CCC(CN4CCN(Cc5ccc(-n6c(O)nnc6-c6cc(C(C)C)c(O)cc6OC)cc5)CC4)CC3)CC2)ccc1Nc1ncc2c(n1)N(C)c1ccccc1C(=O)N2C` [Compound 052, 2-((2-ethoxy-4-(4-(4-((4-(4-(3-hydroxy-5-(4-hydroxy-5-isopropyl-2-methoxyphenyl)-4H-1,2,4-triazol-4-yl)benzyl)piperazin-1-yl)methyl)piperidine-1-carbonyl)piperidin-1-yl)phenyl)amino)-5,11-dimethyl-5,11-dihydro-6H-benzo[e]pyrimido[5,4-b][1,4]diazepin-6-one], for which the IC50 at HSP90α protein [1] and at MAPK7 [7] was > 1000 nM throughout. Moreover, the ERBB2 degradation result with ERBB2 was “C (DC50 > 1000 nM)”. The EC50 in experiment [2], in [3], in experiment [4], in experiment [5] and in experiment [6] was > 1000 nM in each case.

For `CCOc1cc(N2CCC(C(=O)N3CCC(N4CCN(Cc5ccc(-n6c(O)nnc6-c6cc(C(C)C)c(O)cc6O)cc5)CC4)CC3)CC2)ccc1Nc1ncc2c(n1)N(C)c1ccccc1C(=O)N2C` [Compound 004, 2-((4-(4-(4-(4-(4-(3-(2,4-dihydroxy-5-isopropylphenyl)-5-hydroxy-4H-1,2,4-triazol-4-yl)benzyl)piperazin-1-yl)piperidine-1-carbonyl)piperidin-1-yl)-2-ethoxyphenyl)amino)-5,11-dimethyl-5H-benzo[e]pyrimido[5,4-b][1,4]diazepin-6(11H)-one], the half-inhibitory concentration (IC50) on HSP90α protein [1] and at HSP90α protein [8] was 100 to 1000 nM throughout. Moreover, in the experiment with ERBB2, the ERBB2 degradation entry is given as “B (DC50 = 100-1000 nM)”. Further, the EC50 in [2] was 100 to 1000 nM; in experiment [3], < 100 nM; in experiment [4], < 100 nM; in experiment [5], < 100 nM; in experiment [6] it was < 100 nM. Also, the “MAPK7 degradation (30 nM)” value at MAPK7 [9] is on record as “C (< 33% degradation)”. For the same molecule, at MAPK7 [9], the “MAPK7 degradation (100 nM)” value is listed as “C (< 33% degradation)”. In addition, the “MAPK7 degradation (1000 nM)” value at MAPK7 [9] is “A (>66% degradation)”.

On to `CCOc1cc(N2CCC(C(=O)N3CCC(N4CCN(c5ccc(-n6c(O)nnc6-c6cc(C(C)C)c(O)cc6O)cc5)CC4)CC3)CC2)ccc1Nc1ncc2c(n1)N(C)c1ccccc1C(=O)N2C` [Compound 040, 2-((4-(4-(4-(4-(4-(3-(2,4-dihydroxy-5-isopropylphenyl)-5-hydroxy-4H-1,2,4-triazol-4-yl)phenyl)piperazin-1-yl)piperidine-1-carbonyl)piperidin-1-yl)-2-ethoxyphenyl)amino)-5,11-dimethyl-5,11-dihydro-6H-benzo[e]pyrimido[5,4-b][1,4]diazepin-6-one], for which the IC50 on HSP90α protein [1] lay in the range of 100 to 1000 nM. In addition, the EC50 is 100 to 1000 nM in experiment [2]; < 100 nM in experiment [3]; < 100 nM in [4]; < 100 nM in experiment [5]; 100 to 1000 nM in experiment [6]. In addition, at MAPK7 [9], the “MAPK7 degradation (30 nM)” value is recorded as “C (< 33% degradation)”. Further, the “MAPK7 degradation (100 nM)” value on MAPK7 [9] is listed as “B (33-66% degradation)”. In addition, on MAPK7 [9] (300 nM), the “MAPK7 degradation (300 nM)” value is on record as “A (>66% degradation)”. For the same molecule, the “MAPK7 degradation (1000 nM)” value at MAPK7 [9] is reported as “A (>66% degradation)”.
